# Experimental data taken from PMC8426295, “Cytotoxic and radiosensitising effects of a novel thioredoxin reductase inhibitor in breast cancer” (Investigational New Drugs, 2021).
# Marks after values point to notes of the source that are not given here.
# Key:
# [1] = tested on: TrxR; experiment: Western blotting of TrxR expression; assay type: cell-based, human; conditions: clonogenic IC50 concentration, 48 h
# Description: Cells were treated with IQ9 (clonogenic IC50 concentrations) for 48 h, harvested, and resuspended in 1 mL of RIPA buffer (Sigma, UK) supplemented with 1X Halt phosphatase inhibitor cocktail, protease inhibitor cocktail, and EDTA. Samples were run on an SDS-polyacrylamide gel and transferred onto a 0.2 μm nitrocellulose membrane (GE Healthcare). The membrane was then blocked using 5% milk powder in 0.1% PBS/ Tween20, for 1 h at room temperature and then incubated with primary antibody overnight at 4 °C. Anti-β-actin antibody (Abcam) was used as a loading control. Primary antibodies were rabbit anti-human Trx (Abcam; 1:1000), mouse anti-human antibody (Abcam; 1:500), and rabbit anti-human Txnip (Abcam; 1:500). For Trx and Txnip, bands were detected using an Odyssey FC Imager (LI-COR). Images were obtained and fluorescence intensity quantified using Image Studio Software (version 4). The signals for Trx and Txnip were normalised against β-actin. For TrxR, bands were detected using an Amersham Enhanced Chemiluminescence system (GE Healthcare).
# [2] = tested on: MDA-MB-231 cells; experiment: Cell proliferation assay (cell count); assay type: cell-based; conditions: Homo sapiens, MDA-MB-231, 48 h
# Description: (§1) 1 × 10^5 cells (2 × 10^5 for T47D’s) were seeded, in triplicate, in 6-well plates and incubated overnight before being treated with IQ9 (0–5000 nM) or doxorubicin (400–600 nM) (positive control and comparator). Total cells were counted after 48 h using a haemocytometer. The total cell count in drug treatment wells was normalised as a percentage of the total cells in vehicle control wells.
# (§2) IC50 values were calculated from dose-response curves using an SPSS regression model between inhibition ratios and concentration gradients. The radiobiological parameters: alpha (α), beta (β), α/β ratio, and surviving fraction at 2 Gy (SF2) were extracted from the survival curves fitted using the LQ model. All results are presented as average ± standard deviation (SD) of three independent experiments, each performed in triplicate. Data were analysed using the student T-test and ANOVA one-way test. Statistical analysis was performed using SPSS 23.0 software. Values of P < 0.05 were considered statistically significant.
# [3] = tested on: MDA-MB-468 cells; experiment: Cell proliferation assay (cell count); assay type: cell-based; conditions: Homo sapiens, MDA-MB-468, 48 h
# Description: as §1, §2
# [4] = tested on: MCF-7 cells; experiment: Cell proliferation assay (cell count); assay type: cell-based; conditions: Homo sapiens, MCF7, 48 h
# Description: as §1, §2
# [5] = tested on: T47D cells; experiment: Cell proliferation assay (cell count); assay type: cell-based; conditions: Homo sapiens, 48 h
# Description: as §1, §2
# [6] = tested on: MDA-MB-231 cells; experiment: Drug-radiation combination clonogenic survival (LQ model); assay type: cell-based, human; conditions: for SER (sensitiser enhancement ratio): at 1% cell survival
# Description: (§3) 5 × 10^5 cells were seeded in T25 cm^2 tissue culture flasks and incubated overnight. The sub-confluent cells were then treated either for 4-h or 48-h with IQ9 (0–5000 nM) or doxorubicin (10–20 nM). Following drug treatment, cells were collected, counted, and plated at low-density, in triplicate, and incubated, at 37 °C, 5% CO2, undisturbed, for 2 weeks for TNBC cells and 3 weeks for luminal cells, for colony formation. Colonies were fixed (50% methanol in 0.9% saline solution) and stained (0.5% crystal violet solution). Colonies consisting of more than 50 cells were confirmed by microscopy and scored as survivors. The plating efficiency (PE) was calculated as numbers of colonies formed/ numbers of cells plated. For single-agent treatment, drug or radiation, the surviving fraction was calculated as: number of colonies formed/ (numbers of cell plated x PE). For drug radiation combination experiments, cytotoxicity of drug treatment was accounted for by calculating surviving fraction as: number of colonies formed from each radiation dose/ (number of cells plated × PE × surviving fraction of drug-treated cell at 0 Gy).
# (§4) Sub-confluent cells were irradiated with a dose of 2, 4, 6, or 8 Gy (at a dose rate of 0.87 Gy/min) using an RS225 x-ray cabinet irradiation system (Xstrahl Limited, UK), fitted with a 0.5 mm Cu filter and run at 195 kV, 10 mA. Following irradiation, cells were immediately trypsinised and plated for clonogenic survival. Sham-irradiated cells were used as controls. Dose-response curves were plotted as a function of radiation dose on a log/ linear plot. Clonogenic survival calculation software (CS-CAL), developed by the Translational Radiation Oncology Group, German Cancer Research Centre was used to fit survival curves to the linear-quadratic (LQ) model (equation: […] ). The software can be accessed online at http://angiogenesis.dkfz.de/oncoexpress/software/cs-cal/. For drug-radiation combinations, cells were treated with 1000 nM IQ9 (2500 nM for T47D) for 4 h followed by irradiation (0–8 Gy). For 48 h drug treatment experiments, MDA-MB-231 and T47D cells were treated with clonogenic IC50 concentrations of IQ9 before irradiation. The sensitiser enhancement ratio (SER), calculated by dividing the X-ray dose causing 1% cell survival in the absence of drug treatment by the X-ray dose leading to 1% cell survival in the presence of drug treatment, was used to evaluate the degree of radiosensitisation.
# as §2
# [7] = tested on: MDA-MB-468 cells; experiment: as above; assay type: cell-based, human
# Description: as §3, §4, §2
# [8] = tested on: MCF-7 cells; experiment: as above; assay type: cell-based, human; conditions: 1000 nM IQ9 for 4 h followed by irradiation
# Description: as §3, §4, §2
# [9] = tested on: MDA-MB-436 cells; experiment: as above; assay type: cell-based, human
# Description: as §3, §4, §2
# [10] = tested on: T47D cells; experiment: as above; assay type: cell-based, human; conditions: for SER (sensitiser enhancement ratio): at 1% cell survival
# Description: as §3, §4, §2
# [11] = tested on: breast cancer cells; experiment: Potency against breast cancer cells (IC50 range, comparison of TrxR inhibitors); assay type: cell-based; conditions: Homo sapiens; range over the cell lines and assays of this study
# [12] = 1000 nM IQ9 for 4 h followed by irradiation
# [13] = IQ9 exposure 48 h before irradiation
# [14] = clonogenic IC50 concentration of IQ9 for 48 h before irradiation
# [15] = 1000 nM IQ9 for 4 h followed by irradiation, at 1% cell survival
# [16] = IQ9 for 4 h followed by irradiation, vs control
# [17] = 2500 nM IQ9 for 4 h followed by irradiation
structure (smiles),measurement,setting,value
COC1=CC(=O)c2c(c(COc3c(F)cc(F)cc3F)cn2C)C1=O [IQ9],expression of TrxR,[1]; TNBC cells,"little effect, if any"
same,expression of TrxR,[1]; luminal cells,Increased expression
same,IC50,[2],0.246 ± 0.0553 µM
same,IC50,[3],0.425 ± 0.155 µM
same,IC50,[4],0.379 ± 0.0424 µM
same,IC50,[5],1.43 ± 0.255 µM
same,SF2 (surviving fraction at 2 Gy),[6]; [12],0.21 ± 0.02
same,α,[6]; [12],0.70 ± 0.17 Gy^−1
same,α/β Ratio,[6]; [12],11.67 ± 3.63
same,β,[6]; [12],0.06 ± 0.01 Gy^−2
same,SER (sensitiser enhancement ratio),[6]; [12],1.20
same,radiosensitivity (in words),[6]; [13],no significant increase in radiosensitivity
same,SF2 (surviving fraction at 2 Gy),[6]; [14],0.22 ± 0.08
same,α,[6]; [14],0.85 ± 0.04 Gy^−1
same,α/β Ratio,[6]; [14],25.60 ± 4.62
same,β,[6]; [14],0.03 ± 0.01 Gy^−2
same,SER (sensitiser enhancement ratio),[6]; [14],1.07
same,SF2 (surviving fraction at 2 Gy),[7]; [12],0.19 ± 0.01
same,α,[7]; [12],0.85 ± 0.08* Gy^−1
same,α/β Ratio,[7]; [12],85.00 ± 8.18
same,β,[7]; [12],0.01 ± 0.00 Gy^−2
same,SER (sensitiser enhancement ratio),[7]; [15],1.30
same,factor of increase in α,[7]; [16],1.4
same,SF2 (surviving fraction at 2 Gy),[8],0.24 ± 0.10
same,α,[8],0.58 ± 0.18 Gy^−1
same,α/β Ratio,[8],7.25 ± 3.19
same,β,[8],0.08 ± 0.02 Gy^−2
same,SER (sensitiser enhancement ratio),[8]; at 1% cell survival,1.08
same,SF2 (surviving fraction at 2 Gy),[9]; [12],0.07 ± 0.01
same,α,[9]; [12],1.33 ± 0.06* Gy^−1
same,α/β Ratio,[9]; [12],66.53 ± 2.89
same,β,[9]; [12],0.02 ± 0.00 Gy^−2
same,SER (sensitiser enhancement ratio),[9]; [15],1.43
same,factor of increase in α,[9]; [16],1.8
same,SF2 (surviving fraction at 2 Gy),[10]; [17],0.45 ± 0.02
same,α,[10]; [17],0.47 ± 0.04 Gy^−1
same,α/β Ratio,[10]; [17],15.66 ± 1.17
same,β,[10]; [17],0.03 ± 0.00 Gy^−2
same,SER (sensitiser enhancement ratio),[10]; [17],1.00
same,radiosensitivity (in words),[10]; [13],no significant increase in radiosensitivity
same,radiosensitisation (in words),[10]; IQ9 for 4 h followed by irradiation,no altered radiosensitisation
same,SF2 (surviving fraction at 2 Gy),[10]; [14],0.31 ± 0.04
same,α,[10]; [14],0.40 ± 0.12 Gy^−1
same,α/β Ratio,[10]; [14],7.27 ± 5.53
same,β,[10]; [14],0.05 ± 0.02 Gy^−2
same,SER (sensitiser enhancement ratio),[10]; [14],1.00
same,IC50,[11],0.2 to 2 µM
